# From ChEMBL document CHEMBL2074381, “Pharmacokinetic and prognostic significance of intestinal MDR1 expression in recipients of living-donor liver transplantation” (Clin Pharmacol Ther, 2001)
# Molecular target: ATP-dependent translocase ABCB1 (Homo sapiens, UniProt P08183)
# Experiment: TP_TRANSPORTER: mRNA expression level of MDR1 was inversely related to the concentration/dose ratio in vivo, recipients of living-donor liver transplantation
# Format: functional, organism-based
# ATP-dependent translocase ABCB1, sequence (P08183 whole entry): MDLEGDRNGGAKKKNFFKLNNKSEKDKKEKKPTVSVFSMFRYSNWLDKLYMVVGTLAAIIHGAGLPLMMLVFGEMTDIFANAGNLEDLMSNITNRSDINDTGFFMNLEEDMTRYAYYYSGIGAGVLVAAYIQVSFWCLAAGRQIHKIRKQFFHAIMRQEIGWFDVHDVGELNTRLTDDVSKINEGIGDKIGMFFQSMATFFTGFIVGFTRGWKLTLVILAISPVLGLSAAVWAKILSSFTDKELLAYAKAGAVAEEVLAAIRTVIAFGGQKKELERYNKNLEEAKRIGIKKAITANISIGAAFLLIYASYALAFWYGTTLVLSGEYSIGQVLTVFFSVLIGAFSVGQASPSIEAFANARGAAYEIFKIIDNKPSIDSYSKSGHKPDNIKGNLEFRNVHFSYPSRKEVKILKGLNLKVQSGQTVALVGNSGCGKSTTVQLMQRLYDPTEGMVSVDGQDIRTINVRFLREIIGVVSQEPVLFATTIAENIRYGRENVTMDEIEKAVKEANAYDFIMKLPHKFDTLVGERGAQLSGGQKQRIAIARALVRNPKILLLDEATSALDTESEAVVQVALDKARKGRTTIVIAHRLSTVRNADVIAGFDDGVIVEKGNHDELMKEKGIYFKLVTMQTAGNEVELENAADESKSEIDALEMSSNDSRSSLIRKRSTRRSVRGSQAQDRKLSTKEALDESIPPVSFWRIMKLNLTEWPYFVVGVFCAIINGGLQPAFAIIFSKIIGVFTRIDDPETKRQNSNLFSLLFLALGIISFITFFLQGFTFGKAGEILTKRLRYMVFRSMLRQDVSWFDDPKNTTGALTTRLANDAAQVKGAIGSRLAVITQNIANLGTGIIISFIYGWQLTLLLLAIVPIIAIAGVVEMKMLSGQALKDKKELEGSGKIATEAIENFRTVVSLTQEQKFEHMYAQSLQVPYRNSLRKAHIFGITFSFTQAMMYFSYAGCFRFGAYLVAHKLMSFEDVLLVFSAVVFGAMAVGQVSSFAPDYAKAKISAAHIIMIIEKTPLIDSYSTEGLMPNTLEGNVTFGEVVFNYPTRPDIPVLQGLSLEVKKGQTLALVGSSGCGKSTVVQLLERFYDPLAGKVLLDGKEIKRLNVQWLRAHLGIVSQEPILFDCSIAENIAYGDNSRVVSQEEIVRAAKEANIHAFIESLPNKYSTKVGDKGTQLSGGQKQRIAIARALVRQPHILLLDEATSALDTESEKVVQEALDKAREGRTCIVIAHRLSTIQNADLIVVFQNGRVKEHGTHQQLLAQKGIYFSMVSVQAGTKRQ
compound,measurement,value
C=CC[C@@H]1/C=C(\C)C[C@H](C)C[C@H](OC)[C@H]2O[C@@](O)(C(=O)C(=O)N3CCCC[C@H]3C(=O)O[C@H](/C(C)=C/[C@@H]3CC[C@@H](O)[C@H](OC)C3)[C@H](C)[C@@H](O)CC1=O)[C@H](C)C[C@@H]2OC [TACROLIMUS ANHYDROUS],Activity,substrate [+]
